Assay results from patent publication US6534523B1, “Hepatitis C inhibitor tri-peptides” (Boehringer Ingelheim (Canada) Ltd., priority 1998, dated 2003).
pIC50: −log10 of the molar value. Read-outs that look alike come from different tables or passages of the source.

Molecular target: HCV NS3 protease (UniProt P26663)
Type: biochemical, HCV genotype 1b
Set-up: rows headed: IC50 (μM); IC50 (μM)

Sequence of HCV NS3 protease (P26663 1027-1206, other chains not shown): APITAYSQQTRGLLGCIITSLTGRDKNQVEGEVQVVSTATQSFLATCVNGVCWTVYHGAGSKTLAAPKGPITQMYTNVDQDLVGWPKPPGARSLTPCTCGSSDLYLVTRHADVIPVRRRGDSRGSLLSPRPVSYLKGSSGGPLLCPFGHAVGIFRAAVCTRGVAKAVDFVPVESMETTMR

C=CC1CC1(NC(=O)C1CC(Oc2cc(-c3cccc(C)c3)nc3cc(OC)ccc23)CN1C(=O)C(NC(=O)OC(C)(C)C)C(C)(C)C)C(=O)O (stereo not drawn) [compound 842]
pIC50 (Table 8): 7.14

C=CC1CC1(NC(=O)C1CC(Oc2cc(-c3ccccc3)nc3cc(OC)ccc23)CN1C(=O)C(NC(=O)OC1CCCCC1)C(C)(C)C)C(=O)O (stereo not drawn) [compound 868]
pIC50 (Table 8): 7.52

CC[C@H]1C[C@]1(NC(=O)[C@@H]1C[C@@H](OCc2cccc3ccccc23)CN1C(=O)[C@@H](NC(=O)OCC(C)C)C1CCCCC1)C(=O)O [compound 303]
pIC50 (Table 3): 4.96

C=CC1C[C@]1(NC(=O)[C@@H]1C[C@@H](Oc2cc(N)nc3cc(OC)ccc23)CN1C(=O)[C@@H](NC(=O)OC(C)(C)C)C(C)(C)C)C(=O)O (stereo partly drawn) [compound 718]
pIC50 (Table 7): 6.80

C=CC1CC1(NC(=O)C1CC(Oc2cc(OC(C)C)nc3cc(OC)ccc23)CN1C(=O)C(NC(=O)OC(C)(C)C)C(C)(C)C)C(=O)O (stereo not drawn) [compound 730]
pIC50 (Table 7): 7.38

C=CC1CC1(NC(=O)C1CC(Oc2cc(-c3ccccc3)nc3cc(OC)ccc23)CN1C(=O)C(Nc1cccc(OC)c1)C(C)C)C(=O)O (stereo not drawn) [compound 821]
pIC50 (Table 8): 6.92

C=CC1CC1(NC(=O)C1CC(Oc2cc(-c3ccccc3)nc3cc(OC)ccc23)CN1C(=O)C(NC(=O)OC1CCC1)C(C)(C)C)C(=O)O (stereo not drawn) [compound 905]
pIC50 (Table 9): 7.54

C=CC1CC1(NC(=O)C1CC(Oc2cc(-c3ccccc3)nc3cc(OC)ccc23)CN1C(=O)C(NC(=O)NC(C)(C)CO)C(C)(C)C)C(=O)O (stereo not drawn) [compound 835]
pIC50 (Table 8): 8.15

C=CC1CC1(NC(=O)C1CC(Oc2cc(-c3ccccc3)nc3cc(Br)ccc23)CN1C(=O)C(NC(=O)OC(C)(C)C)C(C)(C)C)C(=O)O (stereo not drawn) [compound 626]
pIC50 (Table 6): 6.62

C=CC1CC1(NC(=O)C1CC(Oc2cc(CN3CCOCC3)nc3ccccc23)CN1C(=O)C(NC(=O)OC(C)(C)C)C(C)(C)C)C(=O)O (stereo not drawn) [compound 609]
pIC50 (Table 6): 5.77

C=CC1CC1(NC(=O)C1CC(Oc2cc(-c3csc(C)n3)nc3cc(OC)ccc23)CN1C(=O)C(NC(=O)OC(C)(C)C)C(C)(C)C)C(=O)O (stereo not drawn) [compound 711]
pIC50 (Table 7): 7.80

C=CC1CC1(NC(=O)C1CC(Oc2cc(-c3csc(NC(C)C)n3)nc3cc(N(C)C)ccc23)CN1C(=O)C(NC(=O)OC(C)(C)C)C(C)(C)C)C(=O)O (stereo not drawn) [compound 629]
pIC50 (Table 6): 7.70

C=CC1CC1(NC(=O)C1CC(Oc2cc(-c3ccccc3)nc3cc(OC)ccc23)CN1C(=O)C(NC(=O)C(C)C1CCCCC1)C(C)(C)C)C(=O)O (stereo not drawn) [compound 806]
pIC50 (Table 8): 7.44

C=CC1CC1(NC(=O)C1CC(Oc2cc(C3CCCCC3)nc3cc(OC)ccc23)CN1C(=O)C(NC(=O)OC(C)(C)C)C(C)(C)C)C(=O)O (stereo not drawn) [compound 737]
pIC50 (Table 7): 6.96

C=CC1CC1(NC(=O)C1CC(Oc2cc(OCCC)nc3cc(OC)ccc23)CN1C(=O)C(NC(=O)OC(C)(C)C)C(C)(C)C)C(=O)O (stereo not drawn) [compound 731]
pIC50 (Table 7): 7.51

C=CC1CC1(NC(=O)C1CC(Oc2cc(-c3ccccc3)nc3cc(OC)ccc23)CN1C(=O)C(NC(=O)NC(C)(C)CC)C(C)(C)C)C(=O)O (stereo not drawn) [compound 870]
pIC50 (Table 8): 8.05

C=CC1CC1(NC(=O)C1CC(Oc2cc(-c3csc(NC(C)=O)n3)nc3cc(OC)ccc23)CN1C(=O)C(NC(=O)OC(C)(C)C)C(C)(C)C)C(=O)O (stereo not drawn) [compound 719]
pIC50 (Table 7): 7.74

C=CC1CC1(NC(=O)C1CC(Oc2cc(-c3ccccc3)nc3cc(OC)ccc23)CN1C(=O)C(NC(=O)COc1c(C)cccc1C)C(C)(C)C)C(=O)O (stereo not drawn) [compound 810]
pIC50 (Table 8): 6.35

C=CC1CC1(NC(=O)C1CC(Oc2cc(-c3ccccc3)nc3cc(OC)ccc23)CN1C(=O)C(Nc1ccc2c(c1)OCO2)C(C)C)C(=O)O (stereo not drawn) [compound 846]
pIC50 (Table 8): 6.98

C=CC1CC1(NC(=O)C1CC(Oc2cc(-c3ccccc3)nc3cc(OC)ccc23)CN1C(=O)C(NC(=S)NC1CCCCC1)C(C)(C)C)C(=O)O (stereo not drawn) [compound 818]
pIC50 (Table 8): 7.72

C=CC1CC1(NC(=O)C1CC(Oc2cc(-c3ccccc3)nc3cc(OC)ccc23)CN1C(=O)C(NC(=O)Nc1nccs1)C(C)(C)C)C(=O)O (stereo not drawn) [compound 913]
pIC50 (Table 9): 7.52

C=CC1CC1(NC(=O)C1CC(Oc2cc(-c3ccccc3)nc3cc(OC)ccc23)CN1C(=O)C(NC(=O)OCC(C)(C)N)C(C)(C)C)C(=O)O (stereo not drawn) [compound 866]
pIC50 (Table 8): 6.70

C=CC1CC1(NC(=O)C1CC(Oc2cc(N3CCCC3)nc3ccccc23)CN1C(=O)C(NC(=O)OC(C)(C)C)C(C)(C)C)C(=O)O (stereo not drawn) [compound 613]
pIC50 (Table 6): 6.00

C=CC1CC1(NC(=O)C1CC(Oc2cc(-c3ccccc3)nc3cc(OC)ccc23)CN1C(=O)C(NC(=O)NC(C)(C)COC)C(C)(C)C)C(=O)O (stereo not drawn) [compound 857]
pIC50 (Table 8): 7.96

C=CC1CC1(NC(=O)C1CC(Oc2cc(-c3csc(CC)n3)nc3cc(OC)ccc23)CN1C(=O)C(NC(=O)OC(C)(C)C)C(C)(C)C)C(=O)O (stereo not drawn) [compound 714]
pIC50 (Table 7): 7.92

C=CC1CC1(NC(=O)C1CC(Oc2cc(-c3ccccc3)nc3cc(OC)ccc23)CN1C(=O)C(Nc1ccc([N+](=O)[O-])cc1)C(C)C)C(=O)O (stereo not drawn) [compound 836]
pIC50 (Table 8): 6.89

C=CC1CC1(NC(=O)C1CC(Oc2cc(-c3ccccc3)nc3cc(OC)ccc23)CN1C(=O)C(NC(=O)NC(C)C(C)(C)C)C(C)(C)C)C(=O)O (stereo not drawn) [compound 873]
pIC50 (Table 8): 7.72

C=CC1CC1(NC(=O)C1CC(Oc2cc(-c3ccc(C)cc3)nc3cc(OC)ccc23)CN1C(=O)C(NC(=O)OC(C)(C)C)C(C)(C)C)C(=O)O (stereo not drawn) [compound 843]
pIC50 (Table 8): 7.28

C=CC1CC1(NC(=O)C1CC(Oc2cc(-c3ccccc3)nc3cc(OC)ccc23)CN1C(=O)C(NC(C)=O)C(C)(C)C)C(=O)O (stereo not drawn) [compound 805]
pIC50 (Table 8): 7.08

COc1ccc2c(OC3C[C@@H](C(=O)NC4(C(=O)O)CCC4)N(C(=O)[C@@H](NC(=O)OC(C)(C)C)C(C)(C)C)C3)cc(-c3ccccc3)nc2c1 (stereo partly drawn) [compound 403]
pIC50 (Table 4): 6.88

C=CC1CC1(NC(=O)C1CC(Oc2cc(-c3ccccc3)nc3cc(OC)ccc23)CN1C(=O)C(NC(=O)NC(C)C)C(C)(C)C)C(=O)O (stereo not drawn) [compound 807]
pIC50 (Table 8): 8.00

C=C[C@H]1C[C@]1(NC(=O)[C@@H]1C[C@@H](Oc2ccc3ccccc3c2)CN1C(=O)[C@@H](NC(=O)OC(C)(C)C)C1CCCCC1)C(=O)O [compound 309]
pIC50 (Table 3): 5.30

C=CC1CC1(NC(=O)C1CC(Oc2cc(-c3csc(-c4csc(C)n4)n3)nc3cc(OC)ccc23)CN1C(=O)C(NC(=O)OC(C)(C)C)C(C)(C)C)C(=O)O (stereo not drawn) [compound 732]
pIC50 (Table 7): 7.70

C=CC1CC1(NC(=O)C1CC(Oc2ccnc3cc(Cl)ccc23)CN1C(=O)C(NC(=O)OC(C)(C)C)C(C)C)C(=O)O (stereo not drawn) [compound 607]
pIC50 (Table 6): 6.35

C=CC1CC1(NC(=O)C1CC(Oc2cc(-c3ccccc3)nc3cc(OC)ccc23)CN1C(=O)C(NC(=O)NN(C)C)C(C)(C)C)C(=O)O (stereo not drawn) [compound 827]
pIC50 (Table 8): 6.57

C=CC1CC1(NC(=O)C1CC(Oc2cc(-c3ccccc3)nc3cc(OC)ccc23)CN1C(=O)C(NC(=O)C(CC(=O)O)C1CCCCC1)C(C)(C)C)C(=O)O (stereo not drawn) [compound 903]
pIC50 (Table 9): 8.30

C=CC1CC1(NC(=O)C1CC(Oc2cc(-c3ccccc3)nc3cc(OC)ccc23)CN1C(=O)C(Nc1ccc2ccccc2c1)C(C)C)C(=O)O (stereo not drawn) [compound 863]
pIC50 (Table 8): 6.52

C=CC1CC1(NC(=O)C1CC(Oc2cc(-c3ccccc3)nc3cc(OC)ccc23)CN1C(=O)C(NC(=O)CC1CCCCC1)C(C)(C)C)C(=O)O (stereo not drawn) [compound 804]
pIC50 (Table 8): 7.49

C=CC1CC1(NC(=O)C1CC(Oc2cc(N3CCOCC3)nc3cc(OC)ccc23)CN1C(=O)C(NC(=O)OC(C)(C)C)C(C)(C)C)C(=O)O (stereo not drawn) [compound 705]
pIC50 (Table 7): 6.89

C=CC1CC1(NC(=O)C1CC(Oc2cc(-c3ccccc3)nc3cc(OC)ccc23)CN1C(=O)C(NC(=O)NC(C)C(N)=O)C(C)(C)C)C(=O)O (stereo not drawn) [compound 831]
pIC50 (Table 8): 7.82

C=CC1CC1(NC(=O)C1CC(Oc2cc(N(C)C)nc3ccccc23)CN1C(=O)C(NC(=O)OC(C)(C)C)C(C)(C)C)C(=O)O (stereo not drawn) [compound 624]
pIC50 (Table 6): 5.89

C=CC1CC1(NC(=O)C1CC(Oc2cc(OCC)nc3ccccc23)CN1C(=O)C(NC(=O)OC(C)(C)C)C(C)(C)C)C(=O)O (stereo not drawn) [compound 622]
pIC50 (Table 6): 6.80

C=CC1CC1(NC(=O)C1CC(Oc2cc(-c3csc(NCC)n3)nc3cc(OC)ccc23)CN1C(=O)C(NC(=O)OC(C)(C)C)C(C)(C)C)C(=O)O (stereo not drawn) [compound 722]
pIC50 (Table 7): 7.32

C=CC1CC1(NC(=O)C1CC(Oc2cc(-c3cccnc3)nc3cc(OC)ccc23)CN1C(=O)C(NC(=O)OC(C)(C)C)C(C)(C)C)C(=O)O (stereo not drawn) [compound 716]
pIC50 (Table 7): 7.10

C=CC1CC1(NC(=O)C1CC(Oc2cc(-c3ccccc3C)nc3cc(OC)ccc23)CN1C(=O)C(NC(=O)OC(C)(C)C)C(C)(C)C)C(=O)O (stereo not drawn) [compound 841]
pIC50 (Table 8): 6.62

CCC1CC1(NC(=O)C1CC(OCc2cccc3ccccc23)CN1C(=O)C(NC(=O)OC(C)(C)C)C1CCCCC1)C(=O)O (stereo not drawn) [compound 301]
pIC50 (Table 3): 5.11

C=CC1CC1(NC(=O)C1CC(Oc2cc(-c3ccccc3OC)nc3cc(OC)ccc23)CN1C(=O)C(NC(=O)OC(C)(C)C)C(C)(C)C)C(=O)O (stereo not drawn) [compound 823]
pIC50 (Table 8): 6.97

C=CC1CC1(NC(=O)C1CC(Oc2ccnc3ccccc23)CN1C(=O)C(NC(=O)OC(C)(C)C)C(O)C1CCCCC1)C(=O)O (stereo not drawn) [compound 511]
pIC50 (Table 5): 5.68

C=CC1CC1(NC(=O)C1CC(Oc2cc(-c3ccc(Cl)cc3)nc3cc(OC)ccc23)CN1C(=O)C(NC(=O)OC(C)(C)C)C(C)(C)C)C(=O)O (stereo not drawn) [compound 811]
pIC50 (Table 8): 7.40

C=CC1CC1(NC(=O)C1CC(Oc2cc(-c3ccccc3Cl)nc3cc(OC)ccc23)CN1C(=O)C(NC(=O)OC(C)(C)C)C(C)(C)C)C(=O)O (stereo not drawn) [compound 814]
pIC50 (Table 8): 6.89

C=CC1CC1(NC(=O)C1CC(Oc2cc(-c3ccccc3)nc3cc(OC)ccc23)CN1C(=O)C(NC(=O)c1ccccc1)C(C)(C)C)C(=O)O (stereo not drawn) [compound 908]
pIC50 (Table 9): 7.14
